According to patent US10273226B2, “Pyrazolyl-heteroarylamides as pesticides” (Bayer Animal Health GmbH, priority 2014, dated 2019):

Assays:
Format in all cases: in vivo
[1] = test system: Boophilus microplus; assay: Boophilus microplus injection test; settings: application rate 20 μg/animal; injection into abdomen; assessed after 7 days
Experimental: Boophilus microplus—Injection Test
(§1) Solvent: dimethyl sulphoxide
To produce an appropriate active ingredient formulation, 10 mg of active ingredient are mixed with 0.5 ml of solvent and the concentrate is diluted with solvent to the desired concentration.
1 μl of the active ingredient solution is injected into the abdomen of 5 engorged adult female cattle ticks (Boophilus microplus). The animals are transferred into dishes and kept in a climate-controlled room.
Efficacy is assessed after 7 days by laying of fertile eggs. Eggs which are not visibly fertile are stored in a climate-controlled cabinet until the larvae hatch after about 42 days. An efficacy of 100% means that none of the ticks has laid any fertile eggs; 0% means that all the eggs are fertile.

[2] = test system: Ctenocephalides felis; assay: Ctenocephalides felis oral test; settings: application rate 100 ppm in citrated cattle blood; after 2 days
Experimental: Ctenocephalides felis—Oral Test
as §1
For the purpose of producing an appropriate active ingredient formulation, 10 mg of active ingredient are mixed with 0.5 ml of dimethyl sulphoxide. Dilution with citrated cattle blood gives the desired concentration.
About 20 unfed adult cat fleas (Ctenocephalides felis) are placed into a chamber which is closed at the top and bottom with gauze. A metal cylinder whose bottom end is closed with parafilm is placed onto the chamber. The cylinder contains the blood/active ingredient preparation, which can be imbibed by the fleas through the parafilm membrane.
After 2 days, the kill in % is determined. 100% means that all of the fleas have been killed; 0% means that none of the fleas have been killed.

[3] = test system: Lucilia cuprina; assay: Lucilia cuprina test; settings: application rate 100 ppm; L1 larvae; after 2 days
Experimental: as §1
(§2) To produce an appropriate active ingredient formulation, 10 mg of active ingredient are mixed with 0.5 ml of dimethyl sulphoxide, and the concentrate is diluted with water to the desired concentration.
About 20 L1 larvae of the Australian sheep blowfly (Lucilia cuprina) are transferred into a test vessel containing minced horsemeat and the active ingredient preparation of the desired concentration.
After 2 days, the kill in % is determined. 100% means that all the larvae have been killed and 0% means that none of the larvae have been killed.

[4] = test system: Musca domestica; assay: Musca domestica test; settings: application rate 100 ppm; adult houseflies; after 2 days
Experimental: as §1, §2
Vessels containing a sponge treated with sugar solution and the active ingredient formulation of the desired concentration are populated with 10 adult houseflies (Musca domestica).
After 2 days, the kill in % is determined. 100% means that all of the flies have been killed; 0% means that none of the flies have been killed.

[5] = test system: Phaedon cochleariae; assay: Phaedon cochleariae spray test; settings: application rate 100 g/ha; larvae; after 7 days
Experimental: Phaedon cochleariae—Spray Test
(§3) To produce an appropriate active ingredient formulation, 1 part by weight of active ingredient is dissolved using the specified parts by weight of solvent and made up with water containing an emulsifier concentration of 1000 ppm until the desired concentration is attained. To produce further test concentrations, the preparation is diluted with emulsifier-containing water.
Discs of Chinese cabbage leaves (Brassica pekinensis) are sprayed with an active ingredient formulation of the desired concentration and, after drying, populated with larvae of the mustard beetle (Phaedon cochleariae).
After 7 days, efficacy in % is determined. 100% means that all the beetle larvae have been killed; 0% means that no beetle larvae have been killed.

[6] = test system: Tetranychus urticae; assay: Tetranychus urticae spray test, OP-resistant; settings: application rate 100 g/ha; after 6 days
Experimental: Tetranychus urticae—Spray Test, OP-Resistant
as §3
Discs of bean leaves (Phaseolus vulgaris) infested by all stages of the greenhouse red spider mite (Tetranychus urticae) are sprayed with an active ingredient formulation of the desired concentration.
After 6 days, efficacy in % is determined. 100% means that all the spider mites have been killed; 0% means that none of the spider mites have been killed.

[7] = test system: Rhipicephalus sanguineus; assay: Rhipicephalus sanguineus in vitro contact test with adult brown dog ticks; settings: application rate 5 μg/cm^2 (500 g/ha); after 48 h; ticks dead or moribund
Experimental: Rhipicephalus sanguineus—In Vitro Contact Tests with Adult Brown Dog Ticks
(§4) For the coating of the test tubes, 9 mg of active ingredient are first dissolved in 1 ml of acetone p.a. and then diluted to the desired concentration with acetone p.a. 250 μl of the solution are distributed homogeneously on the inner walls and base of a 25 ml test tube by turning and rocking on an orbital shaker (rocking rotation at 30 rpm for 2 h). With 900 ppm active ingredient solution and internal surface 44.7 cm^2, given homogeneous distribution, an area-based dose of 5 μg/cm^2 is achieved.
After the solvent has evaporated off, the tubes are populated with 5-10 adult dog ticks (Rhipicephalus sanguineus), sealed with a perforated plastic lid and incubated in a horizontal position in the dark at room temperature and ambient humidity. After 48 h, efficacy is determined. To this end, the ticks are knocked to the floor of the tube and incubated on a hotplate at 45-50° C. for not more than 5 min. Ticks which remain motionless on the floor or move in such an uncoordinated manner that they are unable to deliberately avoid the heat by climbing upwards are considered to be dead or moribund.
An efficacy of 100% means that all the ticks were dead or moribund. 0% efficacy means that none of the ticks had been harmed.

[8] = test system: Spodoptera frugiperda; assay: Spodoptera frugiperda spray test; settings: application rate 100 g/ha; caterpillars; after 7 days
Experimental: Spodoptera frugiperda—Spray Test
as §3
Leaf discs of maize (Zea mays) are sprayed with an active ingredient formulation of the desired concentration and, after drying, populated with caterpillars of the armyworm (Spodoptera frugiperda).
After 7 days, efficacy in % is determined. 100% means that all the caterpillars have been killed; 0% means that no caterpillars have been killed.

[9] = test system: Ctenocephalides felis; assay: Ctenocephalides felis in vitro contact test with adult cat fleas; settings: application rate 5 μg/cm^2 (500 g/ha); after 48 h; fleas dead or moribund
Experimental: Ctenocephalides felis—In Vitro Contact Tests with Adult Cat Fleas
as §4
After the solvent has evaporated off, the tubes are populated with 5-10 adult cat fleas (Ctenocephalides felis), sealed with a perforated plastic lid and incubated in a horizontal position at room temperature and ambient humidity. After 48 h, efficacy is determined. To this end, the test tubes are stood upright and the fleas are knocked to the base of the tube. Fleas which remain motionless at the base or move in an uncoordinated manner are considered to be dead or moribund.
100% efficacy means that all the fleas were dead or moribund. 0% efficacy means that no fleas were harmed.

SMILES	efficacy (laying of fertile eggs) [1] [%]	efficacy (kill in %) [2] [%]	efficacy (kill in %) [3] [%]	efficacy (kill in %) [4] [%]	efficacy [5] [%]	efficacy [6] [%]	efficacy [7] [%]	efficacy [8] [%]	efficacy [9] [%]
COC1CCC(C(=O)Nc2cc(-c3cnn(-c4c(C(F)(F)F)c(C(F)(F)C(F)(F)F)nn4C)c3)ccc2F)CC1 (mixture of isomers) [Example 1-047]	100	100	100	80	100	100	–	–	–
Cn1nc(C(F)(F)C(F)(F)F)c(C(F)(F)F)c1-n1cc(-c2cccc(NC(=O)C3CC3)c2)cn1 [Example 1-002]	100	100	100	100	100	–	100	83	–
Cn1nc(C(F)(F)C(F)(F)F)c(C(F)(F)F)c1-n1cc(-c2cccc(NC(=O)CC(F)(F)F)c2)cn1 [Example 1-007]	100	100	100	100	100	90	100	100	–
Cn1nc(C(F)(F)C(F)(F)F)c(C(F)(F)F)c1-n1cc(-c2ccc(F)c(NC(=O)C3(Cl)CC3)c2)cn1 [Example 1-032]	100	100	100	80	–	–	100	–	–
Cn1cc(C(=O)Nc2cc(-c3cnn(-c4c(C(F)(F)F)c(C(F)(F)C(F)(F)F)nn4C)c3)ccc2F)cn1 [Example 1-035]	100	100	100	100	100	100	80	100	–
Cn1nc(C(F)(F)C(F)(F)F)c(C(F)(F)F)c1-n1cc(-c2ccc(F)c(NC(=O)C3CC3)c2)cn1 [Example 1-055]	100	100	100	100	100	90	80	100	–
Cn1nc(C(F)(F)C(F)(F)F)c(C(F)(F)F)c1-n1cc(-c2ccc(F)c(NC(=O)c3ccccc3F)c2)cn1 [Example 1-071]	100	90	100	80	100	100	–	100	–
Cn1nc(C(F)(F)C(F)(F)F)c(C(F)(F)F)c1-n1cc(-c2ccc(F)c(NC(=O)c3cccc(C#N)c3)c2)cn1 [Example 1-075]	100	100	100	100	–	–	100	–	–
Cn1nc(C(F)(F)C(F)(F)F)c(C(F)(F)F)c1-n1cc(-c2ccc(F)c(NC(=O)C3CCCC3)c2)cn1 [Example 1-077]	100	100	100	100	–	–	100	–	–
Cn1nc(C(F)(F)C(F)(F)F)c(C(F)(F)F)c1-n1cc(-c2ccc(F)c(NC(=O)c3ccc4c(c3)OC(F)(F)O4)c2)cn1 [Example 1-084]	100	100	100	100	100	–	80	100	–
Cn1nc(C(F)(F)C(F)(F)F)c(C(F)(F)F)c1-n1cc(-c2ccc(F)c(NC(=O)c3cccnc3)c2)cn1 [Example 1-085]	100	100	100	–	100	100	100	83	100
Cc1cc(C(=O)Nc2cc(-c3cnn(-c4c(C(F)(F)F)c(C(F)(F)C(F)(F)F)nn4C)c3)ccc2F)ccc1F [Example 1-091]	100	100	100	–	100	100	100	100	100
COc1ccc(C(=O)Nc2cc(-c3cnn(-c4c(C(F)(F)F)c(C(F)(F)C(F)(F)F)nn4C)c3)ccc2F)cc1F [Example 1-095]	100	100	100	–	100	100	100	100	100
COc1cc(C(=O)Nc2cc(-c3cnn(-c4c(C(F)(F)F)c(C(F)(F)C(F)(F)F)nn4C)c3)ccc2F)ccc1C [Example 1-097]	100	100	100	–	100	100	100	100	100
Cn1nc(C(F)(F)C(F)(F)F)c(C(F)(F)F)c1-n1cc(-c2ccc(F)c(NC(=O)C(C)(C)c3cccc(Cl)c3)c2)cn1 [Example 1-119]	100	–	100	80	–	–	–	–	–
Cn1nc(C(F)(F)C(F)(F)F)c(C(F)(F)F)c1-n1cc(-c2ccc(F)c(NC(=O)Cc3ccc(F)cc3Cl)c2)cn1 [Example 1-126]	100	100	100	90	100	–	–	–	–
Cc1ncc(-c2cnn(-c3c(C(F)(F)F)c(C(F)(F)C(F)(F)F)nn3C)c2)cc1NC(=O)c1ccncc1 [Example 2-004]	100	100	100	80	100	100	–	100	–
